# Measured values from the supplement of paper PMC10307832.
# Legend:
# Assay in all cases: relative viability (nuclei count vs DMSO), 5 days (fraction); higher = more cells survive
# AZD6482 + Pictilisib = compound: Cc1cc([C@@H](C)Nc2ccccc2C(=O)O)c2nc(N3CCOCC3)cc(=O)n2c1 [AZD6482] + CS(=O)(=O)N1CCN(Cc2cc3nc(-c4cccc5[nH]ncc45)nc(N4CCOCC4)c3s2)CC1 [Pictilisib] (partner 1 µM)
# Procedure, shortened: (§1)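 Five library-drug doses in √10 steps were combined with a fixed anchor-drug dose, or a single drug was given alone, by pin tool to lung cancer cell lines in 1536-well plates the day after seeding. Nuclei were stained and counted after 5 days. Relative viability is the nuclei count in treated wells over that in vehicle wells, taken as the median of duplicate plates.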
# AZD6482 + Dasatinib = compound: Cc1cc([C@@H](C)Nc2ccccc2C(=O)O)c2nc(N3CCOCC3)cc(=O)n2c1 [AZD6482] + Cc1nc(Nc2ncc(C(=O)Nc3c(C)cccc3Cl)s2)cc(N2CCN(CCO)CC2)n1 [Dasatinib] (partner 0.075 µM)
# Procedure, shortened: as §1
# [1] = compound: COc1cc2nc(N3CCCN(C)CC3)nc(NC3CCN(Cc4ccccc4)CC3)c2cc1OC + CC(=O)c1c(C)c2cnc(Nc3ccc(N4CCNCC4)cn3)nc2n(C2CCCC2)c1=O [Palbociclib] (partner 0.5 µM)
# Procedure, shortened: as §1
# AZD6482 + Navitoclax = compound: Cc1cc([C@@H](C)Nc2ccccc2C(=O)O)c2nc(N3CCOCC3)cc(=O)n2c1 [AZD6482] + CC1(C)CCC(c2ccc(Cl)cc2)=C(CN2CCN(c3ccc(C(=O)NS(=O)(=O)c4ccc(N[C@H](CCN5CCOCC5)CSc5ccccc5)c(S(=O)(=O)C(F)(F)F)c4)cc3)CC2)C1 [Navitoclax] (partner 0.5 µM)
# Procedure, shortened: as §1
cell line,measurement,setting,value
UMC-11,relative viability,AZD6482 + Pictilisib; first compound 0.08 µM,0.757
same,relative viability,AZD6482 + Pictilisib; first compound 0.253 µM,0.817
same,relative viability,AZD6482 + Pictilisib; first compound 0.8 µM,0.841
same,relative viability,AZD6482 + Pictilisib; first compound 2.53 µM,0.503
same,relative viability,AZD6482 + Pictilisib; first compound 8 µM,1.04
same,relative viability,AZD6482 + Dasatinib; first compound 0.08 µM,0.457
same,relative viability,AZD6482 + Dasatinib; first compound 0.253 µM,0.48
same,relative viability,AZD6482 + Dasatinib; first compound 0.8 µM,0.472
same,relative viability,AZD6482 + Dasatinib; first compound 2.53 µM,0.416
same,relative viability,AZD6482 + Dasatinib; first compound 8 µM,0.559
same,relative viability,[1]; first compound 0.2 µM,0.374
same,relative viability,[1]; first compound 0.6325 µM,0.389
same,relative viability,[1]; first compound 2 µM,0.317
same,relative viability,[1]; first compound 6.325 µM,0.259
same,relative viability,AZD6482 + Navitoclax; first compound 0.08 µM,0.331
same,relative viability,AZD6482 + Navitoclax; first compound 0.253 µM,0.329
same,relative viability,AZD6482 + Navitoclax; first compound 0.8 µM,0.313
same,relative viability,AZD6482 + Navitoclax; first compound 2.53 µM,0.309
same,relative viability,AZD6482 + Navitoclax; first compound 8 µM,0.275
